Assay results as given in US10046032B2, “Use of insulin for promoting gastric emptying” (NUTRINIA LTD., priority 2016, dated 2018).
Values joined by “and” are separate entries in the source; they are usually repeats but may differ in a detail not shown here. Equal entries are not always repeated.

Assays:
preterm infants [1] = assay: Singleton study: days until gastric residuals fall, insulin-enriched preterm formula vs placebo; assay type: in vivo, human; conditions: singletons
Description: (§1) Evaluation of gastric residuals (GR) is used in neonatal intensive care units to measure the volume of milk remaining in the stomach at a variable time after a feeding, and as an indicator of gastric emptying (GE).
(§2) 33 preterm infants, aged up to 7 days old, born between 26-33 weeks of pregnancy, weighing over 750 grams, who are free from high index suspicion for infection showing stable condition were enrolled into this study.
(§3) The study products included the insulin composition disclosed herein and placebo. The insulin composition is intended to be mixed with 90 ml ready to feed (RTF) preterm infant formula (manufacturer: Nestle Germany, importer: Materna Laboratories, Israel). Once the insulin is added to the formula, the formula has the concentration of 400 μU Insulin/ml formula.
(§4) Standard feeding bottles and nipples were used.
(§5) The gastric residual amount was measured after every meal.
Singletons were examined for number of days until gastric residual measurements reached less than 2 ml/kg body weight (FIG. 3) and until no gastric residuals were emitted (Table 3).

preterm infants [2] = test system: preterm infants
Description: A Multi-center, two arms, randomized, double-blinded placebo controlled study was conducted to evaluate the effect of insulin-enriched infant formula on preterm infants. The insulin was given within a liquid infant formula with insulin concentration of 400 μU/ml. The study primary goal was to determine whether insulin supplement within the basic preterm oral formula enhances gastric emptying. The gastric emptying was evaluated by the reduction in the amount of gastric residual of the preterm infants.
The infants were randomly assigned to one of two treatment groups: the study product containing insulin as a test group and Placebo supplement as a control group. The parents, the medical team treating the infants and the study monitor were blinded to the treatment arm. From study day 1, the infants in the test group received insulin mixed with the ready to feed (RTF) preterm Materna formula and the control group received a placebo supplement mixed with the same RTF preterm Materna formula.
The insulin composition was used according to study definitions and feeding protocol only. Formula administration was begun at study day 1 and continued throughout the following 28 days or discharge day if achieved prior to day 28. […]

preterm infants [3] = assay: Twin pair study: days until gastric residuals fall, insulin-enriched preterm formula vs placebo; assay type: in vivo, human; conditions: twin pairs
Description: as §1, §2, §3, §4, §5
Twin pairs, treated with insulin as described above, were examined for number of days until gastric residual measurements reached less than 0 ml/kg body weight (FIG. 2 and Table 1) or 2 ml/kg (FIG. 1 and Table 2). […] The enteral administration of insulin strikingly provided a statistically significant improvement in the number of days until gastric residuals reached […] body weight, or <2 ml/kg body weight, relative to control treated infants.

[4] = insulin 400 μU/ml in formula, up to 28 days

Human insulin
Time to reach gastric residuals of less than 2 ml/kg versus control (preterm infants [1]; FIG. 3, P=0.121): earlier than the control
Time to reach no gastric residuals (0 ml/kg) versus control (preterm infants [1]; Table 3, P=0.021): earlier than their control singletons
Number of days until no gastric residuals are emitted, Median (range) (preterm infants [1]; insulin 400 μU/ml in formula, P=0.021 vs control): 0.0 (0-2) days
Number of days until no gastric residuals are emitted, individual infant (preterm infants [1]; treatment infants no. 1-6, insulin 400 μU/ml in formula): 0 days (5×) and 2 days
Deleterious effects resulting from the insulin administration (preterm infants [2]; low birth weight / preterm infants, enteral insulin): No deleterious effects
Effect on blood glucose or insulin levels (preterm infants [2]; orally administered to preterm infants): without affecting the blood glucose or insulin levels
Time to reach gastric residuals of less than 2 ml/kg or 0 ml/kg versus control twin (preterm infants [3]; FIG. 1 (p=0.031) and FIG. 2 (p=0.074)): earlier than their control infant twin in most twin pairs
Number of days until gastric residuals reached 0 ml/Kg body weight, Median (preterm infants [3]; [4]): 0.0 days
Number of days until gastric residuals reached < 2 ml/Kg body weight, Median (preterm infants [3]; [4]): 0 days
Number of days until gastric residuals reached < 2 ml/Kg body weight, Average (preterm infants [3]; insulin 400 μU/ml in formula, up to 28 days, P = 0.031 vs control): 3.8 days
Number of days until gastric residuals reached 0 ml/Kg body weight, Average (preterm infants [3]; insulin 400 μU/ml in formula, up to 28 days, P = 0.074 vs control): 4.1 days
